Measurements taken from patent US6362195B1, “Branched alkoxy-substituted 2-aminopyridines as NOS inhibitors” (Pfizer Inc., priority 1997, dated 2002).
Counter-ions that a name gives are not always drawn.

## CC(C)Oc1cc(C(O)CN2CCN(CCc3ccccc3)CC2)ccc1-c1cccc(N)n1 (centres unmarked) (as salt: hydrochloride)
  melting point: 148 to 165 °C

## Nc1cccc(-c2ccc(CCN3CCN(CCc4ccccc4)CC3)cc2OC2CCCC2)n1 (as salt: hydrochloride)
  melting point: > 200 °C
